Tests used:
Type in all cases: in vivo
[1] = tested on: surinam grass (Brachiaria decumbens); assay: Test C preemergence, plant response rating
[2] = tested on: oat, wild (wild oat Avena fatua); assay: Test C preemergence, plant response rating
[3] = tested on: pigweed, palmer (palmer pigweed, Amaranthus palmeri); assay: Test C postemergence, plant response rating; conditions: for Pigweed, Palmer plant response rating: scale 0 to 100 (0 no effect, 100 complete control)
Method in brief: (§1)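 Pre-emergence: seeds sown in loam soil–sand blend or silt loam and sprayed with test chemicals in a non-phytotoxic solvent mixture with surfactant. Post-emergence: plants 2 to 18 cm (1- to 4-leaf stage) in peat-based potting medium, same formulation. Greenhouse 13 to 15 d; visual rating 0 (no effect) to 100 (complete control) versus controls.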

[4] = tested on: geranium, cutleaf (cutleaf geranium, Geranium dissectum); assay: Test C postemergence, plant response rating; conditions: for Geranium, Cutleaf plant response rating: scale 0 to 100 (0 no effect, 100 complete control)
Method in brief: as §1

[5] = tested on: Canada thistle (Cirsium arvense); assay: Test C postemergence, plant response rating; conditions: for Canada Thistle plant response rating: scale 0 to 100 (0 no effect, 100 complete control)
Method in brief: as §1

[6] = tested on: surinam grass (Brachiaria decumbens); assay: Test C postemergence, plant response rating
Method in brief: as §1

[7] = tested on: field violet (Viola arvensis); assay: Test C postemergence, plant response rating; conditions: for Field Violet plant response rating: scale 0 to 100 (0 no effect, 100 complete control)
Method in brief: as §1

[8] = tested on: field poppy (Papaver rhoeas); assay: Test C postemergence, plant response rating; conditions: for Field Poppy plant response rating: scale 0 to 100 (0 no effect, 100 complete control)
Method in brief: as §1

[9] = tested on: wild mustard (Sinapis arvensis); assay: Test C postemergence, plant response rating; conditions: for Mustard, Wild plant response rating: scale 0 to 100 (0 no effect, 100 complete control)
Method in brief: as §1

[10] = tested on: windgrass (Apera spica-venti); assay: Test C postemergence, plant response rating
Method in brief: as §1

[11] = tested on: buckwheat, wild (wild buckwheat, Polygonum convolvulus); assay: Test C postemergence, plant response rating; conditions: for Buckwheat, Wild plant response rating: scale 0 to 100 (0 no effect, 100 complete control)
Method in brief: as §1

[12] = tested on: nightshade (eastern black nightshade, Solanum ptycanthum); assay: Test C postemergence, plant response rating; conditions: for Nightshade plant response rating: scale 0 to 100 (0 no effect, 100 complete control)
Method in brief: as §1

[13] = tested on: johnsongrass (Sorghum halepense); assay: Test C postemergence, plant response rating; conditions: for Johnsongrass plant response rating: scale 0 to 100 (0 no effect, 100 complete control)
Method in brief: as §1

[14] = tested on: speedwell (bird's-eye speedwell, Veronica persica); assay: Test C postemergence, plant response rating; conditions: for Speedwell plant response rating: scale 0 to 100 (0 no effect, 100 complete control)
Method in brief: as §1

[15] = tested on: wild poinsettia (Euphorbia heterophylla); assay: Test C postemergence, plant response rating; conditions: for Poinsettia, Wild plant response rating: scale 0 to 100 (0 no effect, 100 complete control)
Method in brief: as §1

[16] = tested on: johnsongrass (Sorghum halepense); assay: Test C preemergence, plant response rating
[17] = tested on: wild poinsettia (Euphorbia heterophylla); assay: Test C preemergence, plant response rating
kochia (Kochia scoparia) = assay: Test C preemergence, plant response rating
[18] = tested on: galium (catchweed bedstraw, Galium aparine); assay: Test C preemergence, plant response rating
[19] = tested on: pigweed, palmer (palmer pigweed, Amaranthus palmeri); assay: Test C preemergence, plant response rating
[20] = 125 g ai/ha, scale 0 to 100 (0 no effect, 100 complete control)

## N#CC(CCCC(F)(F)F)c1ccccc1Oc1ncc(Cl)cn1 (centres unmarked) [Compound 144]
[1]; 31 g ai/ha, scale 0 to 100
  Plant response rating, Surinam Grass: 5
[1]; 62 g ai/ha, scale 0 to 100
  Plant response rating, Surinam Grass: 70
[1]; 125 g ai/ha, scale of 0 to 100
  Plant response rating, Surinam Grass: 60
[2]; 31 g ai/ha, scale 0 to 100
  Plant response rating, Oat, Wild: 5
[2]; 62 g ai/ha, scale 0 to 100
  Plant response rating, Oat, Wild: 10
[2]; 125 g ai/ha, scale of 0 to 100
  Plant response rating, Oat, Wild: 10
[3]; 16 g ai/ha, scale of 0 to 100
  Plant response rating, Pigweed, Palmer: 25
[3]; 31 g ai/ha, scale 0 to 100
  Plant response rating, Pigweed, Palmer: 35
[3]; 62 g ai/ha
  Pigweed, Palmer plant response rating: 40
[3]; 125 g ai/ha
  Pigweed, Palmer plant response rating: 80
[4]; 16 g ai/ha, scale of 0 to 100
  Plant response rating, Geranium, Cutleaf: 15
[4]; 31 g ai/ha, scale 0 to 100
  Plant response rating, Geranium, Cutleaf: 20
[4]; 62 g ai/ha
  Geranium, Cutleaf plant response rating: 35
[4]; 125 g ai/ha
  Geranium, Cutleaf plant response rating: 40
[5]; 16 g ai/ha, scale of 0 to 100
  Plant response rating, Canada Thistle: 90
[5]; 31 g ai/ha, scale 0 to 100
  Plant response rating, Canada Thistle: 60
[5]; 62 g ai/ha
  Canada Thistle plant response rating: 90
[5]; 125 g ai/ha
  Canada Thistle plant response rating: 90
[6]; 16 g ai/ha, scale of 0 to 100
  Plant response rating, Surinam Grass: 10
[6]; 31 g ai/ha, scale 0 to 100
  Plant response rating, Surinam Grass: 20
[6]; [20]
  Surinam Grass plant response rating: 25
[7]; 16 g ai/ha, scale of 0 to 100
  Plant response rating, Field Violet: 60
[7]; 31 g ai/ha, scale 0 to 100
  Plant response rating, Field Violet: 65
[7]; 62 g ai/ha
  Field Violet plant response rating: 80
[7]; 125 g ai/ha
  Field Violet plant response rating: 90
[8]; 16 g ai/ha, scale of 0 to 100
  Plant response rating, Field Poppy: 60
[8]; 31 g ai/ha, scale 0 to 100
  Plant response rating, Field Poppy: 80
[8]; 62 g ai/ha
  Field Poppy plant response rating: 90
[8]; 125 g ai/ha
  Field Poppy plant response rating: 100
[9]; 16 g ai/ha, scale of 0 to 100
  Plant response rating, Mustard, Wild: 70
[9]; 31 g ai/ha, scale 0 to 100
  Plant response rating, Mustard, Wild: 70
[9]; 62 g ai/ha
  Mustard, Wild plant response rating: 80
[9]; 125 g ai/ha
  Mustard, Wild plant response rating: 95
[10]; 16 g ai/ha, scale of 0 to 100
  Plant response rating, Windgrass: 10
[10]; 31 g ai/ha, scale 0 to 100
  Plant response rating, Windgrass: 10
[10]; [20]
  Windgrass plant response rating: 30
[11]; 16 g ai/ha, scale of 0 to 100
  Plant response rating, Buckwheat, Wild: 70
[11]; 31 g ai/ha, scale 0 to 100
  Plant response rating, Buckwheat, Wild: 55
[11]; 62 g ai/ha
  Buckwheat, Wild plant response rating: 80
[11]; 125 g ai/ha
  Buckwheat, Wild plant response rating: 95
[12]; 16 g ai/ha, scale of 0 to 100
  Plant response rating, Nightshade: 65
[12]; 31 g ai/ha, scale 0 to 100
  Plant response rating, Nightshade: 75
[12]; 62 g ai/ha
  Nightshade plant response rating: 75
[12]; 125 g ai/ha
  Nightshade plant response rating: 90
[13]; 16 g ai/ha, scale of 0 to 100
  Plant response rating, Johnsongrass: 5
[13]; 31 g ai/ha, scale 0 to 100
  Plant response rating, Johnsongrass: 5
[13]; 62 g ai/ha
  Johnsongrass plant response rating: 5
[13]; 125 g ai/ha
  Johnsongrass plant response rating: 5
[14]; 16 g ai/ha, scale of 0 to 100
  Plant response rating, Speedwell: 60
[14]; 31 g ai/ha, scale 0 to 100
  Plant response rating, Speedwell: 70
[14]; 62 g ai/ha
  Speedwell plant response rating: 95
[14]; 125 g ai/ha
  Speedwell plant response rating: 95
[15]; 16 g ai/ha, scale of 0 to 100
  Plant response rating, Poinsettia, Wild: 30
[15]; 31 g ai/ha, scale 0 to 100
  Plant response rating, Poinsettia, Wild: 35
[15]; 62 g ai/ha
  Poinsettia, Wild plant response rating: 50
[15]; 125 g ai/ha
  Poinsettia, Wild plant response rating: 60
[16]; 31 g ai/ha, scale 0 to 100
  Plant response rating, Johnsongrass: 10
[16]; 62 g ai/ha, scale 0 to 100
  Plant response rating, Johnsongrass: 40
[16]; 125 g ai/ha, scale of 0 to 100
  Plant response rating, Johnsongrass: 70
[17]; 31 g ai/ha, scale 0 to 100
  Plant response rating, Poinsettia, Wild: 5
[17]; 62 g ai/ha, scale 0 to 100
  Plant response rating, Poinsettia, Wild: 40
[17]; 125 g ai/ha, scale of 0 to 100
  Plant response rating, Poinsettia, Wild: 80
Kochia (Kochia scoparia); 31 g ai/ha, scale 0 to 100
  Plant response rating, Kochia: 90
Kochia (Kochia scoparia); 62 g ai/ha, scale 0 to 100
  Plant response rating, Kochia: 100
Kochia (Kochia scoparia); 125 g ai/ha, scale of 0 to 100
  Plant response rating, Kochia: 100
[18]; 31 g ai/ha, scale 0 to 100
  Plant response rating, Galium: 50
[18]; 62 g ai/ha, scale 0 to 100
  Plant response rating, Galium: 50
[18]; 125 g ai/ha, scale of 0 to 100
  Plant response rating, Galium: 55
[19]; 31 g ai/ha, scale 0 to 100
  Plant response rating, Pigweed, Palmer: 100
[19]; 62 g ai/ha, scale 0 to 100
  Plant response rating, Pigweed, Palmer: 100
[19]; 125 g ai/ha, scale of 0 to 100
  Plant response rating, Pigweed, Palmer: 100

— patent US11053204B2, “Pyrimidinyloxy benzene derivatives as herbicides” (FMC Corporation, priority 2015, dated 2021)
